Measurements taken from patent US12415806B1, “Solid state forms” (AMGEN INC., priority 2019, dated 2025).

Assays:
[1] = Solubility assessment; format: physicochemical
Excerpt: (§1) Within the pharmaceutical research and development field, the investigation of a suitable solid-state form represents a crucial step. Investigating a solid-state form comprises several decisions, mainly the investigation of an anhydrous, salt or co-crystal form and the investigation of a polymorph of the respective anhydrous, salt or co-crystal. During a lead optimization program, several properties of research compounds are optimized, typically leading to one or a few candidates that continue into exploratory development programs. Typically, in the assessment and optimization of physical chemical parameters during lead optimization, the main focus is on solubility. […] Beyond the optimization of solubility, further physical chemical parameters, such as (1) melting point, (2) thermal behavior, (3) hygroscopicity, (4) crystal habit, (5) polymorphic behavior or physical stability, (6) impurity profile, and (7) chemical stability of the anhydrous or salt form, must be borne in mind when investigating the salt. The melting point of a drug, either as a free base, acid or salt form, should be higher than a certain threshold to allow processing steps such as drying or tabletting. The assessment of thermal behavior, which is typically done by thermogravimetry (TGA) and differential scanning calorimetry (DSC), also includes solid-solid phase transitions. […]

[2] = tested on: KRAS^G12C tumors; details: preclinical analyses, combination; cited from earlier work
[3] = tested on: KRAS^G12C tumors; details: alone as well as in combination with immune-checkpoint inhibitors; cited from earlier work
[4] = tested on: tumors; details: first dosing cohorts; cited from earlier work
[5] = Solid state physical and chemical stability on storage (HPLC, XRPD, DSC, TGA); format: physicochemical; details: 14 weeks at 25° C./60% RH, 40° C./75% RH, 40° C./ambient RH, and 60° C./ambient RH
[6] = Excipient compatibility study in 3 prototype blends; format: physicochemical; details: 3 prototype blends stored for 4 weeks at 40° C./75% RH
Procedure: (§2) Furthermore, crystalline anhydrous Form I was stable in an excipient compatibility study in 3 prototype blends that were stored for 4 weeks at 40° C./75% RH. Crystalline anhydrous Form I was also stable to ultraviolet and visible light in the solid state.

[7] = Polymorph conversion upon heating or slurrying (thermodynamic stability of forms); format: physicochemical
Procedure: Solutions of the compounds of the disclosure were prepared by adding enough solids to a given solvent so that excess solids were present. All forms described below can be obtained from various solvents, including, but not limited, to the specific solvents described in the Examples. The mixture was then agitated in a sealed vial at either ambient or elevated temperature. After a given amount of time, the solids were isolated by vacuum or centrifuge filtration and analyzed.
The crystalline anhydrous Form II and III described herein below convert to crystalline anhydrous Form I upon heating or slurrying.
Crystalline anhydrous Form III melts at 180° C.

[8] = Stability to ultraviolet and visible light in the solid state; format: physicochemical
Procedure: as §2

[9] = Hygroscopicity (moisture uptake versus relative humidity); format: physicochemical
Excerpt: as §1, with “transitions. These may be either enantiotropic or monotropic and can be related to the conversion of one polymorph to another or one pseudo-polymorph to another pseudo-polymorph—e.g. a lower solvate or hydrate—or a true polymorph. Hygroscopicity plays a key role in the evaluation of solid-state forms, as this property is highly relevant for many process steps such as drying, storage, blending, granulation, to name but a few. Hygroscopicity can be investigated by dynamic vapor sorption (DVS). Basically, this technique yields information on the amount of moisture that is taken up by the compound at a certain relative humidity level.” for “transitions.”

## C=CC(=O)N1CCN(c2nc(=O)n(-c3c(C)ccnc3C(C)C)c3nc(-c4c(O)cccc4F)c(F)cc23)[C@@H](C)C1 (atropisomer, axis not shown) [Compound 1, 6-fluoro-7-(2-fluoro-6-hydroxyphenyl)-1-(4-methyl-2-(2-propanyl)-3-pyridinyl)-4-((2S)-2-methyl-4-(2-propenoyl)-1-piperazinyl)pyrido[2,3-d]pyrimidin-2 (1H)-one]
[1]
  solubility: good solubility features

## C=CC(=O)N1CCN(c2nc(=O)n(-c3c(C)ccnc3C(C)C)c3nc(-c4c(O)cccc4F)c(F)cc23)[C@@H](C)C1 [Compound 1, 6-fluoro-7-(2-fluoro-6-hydroxyphenyl)-1-(4-methyl-2-(2-propanyl)-3-pyridinyl)-4-((2S)-2-methyl-4-(2-propenoyl)-1-piperazinyl)pyrido[2,3-d]pyrimidin-2 (1H)-one]
[2]
  effect on anti-tumor efficacy of chemotherapy and targeted agents: improved the anti-tumor efficacy of chemotherapy and targeted agents
[3]
  tumor outcome in immune-competent mice: produced durable cures
[4]
  anti-tumor activity in clinical trials: demonstrated anti-tumor activity

## C=CC(=O)N1CCN(c2nc(=O)n(-c3c(C)ccnc3C(C)C)c3nc(-c4c(O)cccc4F)c(F)cc23)[C@@H](C)C1 [Form I, 6-fluoro-7-(2-fluoro-6-hydroxyphenyl)-1-(4-methyl-2-(2-propanyl)-3-pyridinyl)-4-((2S)-2-methyl-4-(2-propenoyl)-1-piperazinyl)pyrido[2,3-d]pyrimidin-2 (1H)-one]
[5]
  physical and chemical stability in the solid state (no degradation peaks by HPLC, no changes in XRPD, DSC, TGA): physically and chemically stable
[6]
  stability in excipient compatibility study: stable
[7]; polymorph and salt screen
  thermodynamic stability among polymorphs identified in the screening process: most thermodynamically stable polymorph
[8]
  stability to ultraviolet and visible light: stable
[9]; between 0 and 90% RH at 25° C.
  moisture absorbed: 0.5-1.0 % wt

## C=CC(=O)N1CCN(c2nc(=O)n(-c3c(C)ccnc3C(C)C)c3nc(-c4c(O)cccc4F)c(F)cc23)[C@@H](C)C1 [Form II, 6-fluoro-7-(2-fluoro-6-hydroxyphenyl)-1-(4-methyl-2-(2-propanyl)-3-pyridinyl)-4-((2S)-2-methyl-4-(2-propenoyl)-1-piperazinyl)pyrido[2,3-d]pyrimidin-2 (1H)-one]
[7]; slurrying in water at 90° C. for 1 hour
  form conversion: converts to crystalline anhydrous Form I
[7]; upon heating and recrystallization at 193° C.
  form conversion: converts to crystalline anhydrous Form I
[9]; between 0 and 90% RH at 25° C.
  moisture absorbed: 2-2.5 % wt

## C=CC(=O)N1CCN(c2nc(=O)n(-c3c(C)ccnc3C(C)C)c3nc(-c4c(O)cccc4F)c(F)cc23)[C@@H](C)C1 [Form III, 6-fluoro-7-(2-fluoro-6-hydroxyphenyl)-1-(4-methyl-2-(2-propanyl)-3-pyridinyl)-4-((2S)-2-methyl-4-(2-propenoyl)-1-piperazinyl)pyrido[2,3-d]pyrimidin-2 (1H)-one]
[7]; upon melting and recrystallization at 220° C.
  form conversion: converts to crystalline anhydrous Form I
[9]; between 0-95% RH at 25° C.
  moisture absorbed: 7.0 % wt
